Assay results reported in paper PMC10025235, “Pharmacological and mechanistic study of PS1, a Pdia4 inhibitor, in β-cell pathogenesis and diabetes in db/db mice” (Cellular and Molecular Life Sciences: CMLS, 2023).

Target: T1, Pdia4 (Mus musculus, UniProt P08003)
T1 construct: recombinant Pdia4; Flag-Pdia4 plasmid used in Min6 cells
T1 sequence (P08003 21-638): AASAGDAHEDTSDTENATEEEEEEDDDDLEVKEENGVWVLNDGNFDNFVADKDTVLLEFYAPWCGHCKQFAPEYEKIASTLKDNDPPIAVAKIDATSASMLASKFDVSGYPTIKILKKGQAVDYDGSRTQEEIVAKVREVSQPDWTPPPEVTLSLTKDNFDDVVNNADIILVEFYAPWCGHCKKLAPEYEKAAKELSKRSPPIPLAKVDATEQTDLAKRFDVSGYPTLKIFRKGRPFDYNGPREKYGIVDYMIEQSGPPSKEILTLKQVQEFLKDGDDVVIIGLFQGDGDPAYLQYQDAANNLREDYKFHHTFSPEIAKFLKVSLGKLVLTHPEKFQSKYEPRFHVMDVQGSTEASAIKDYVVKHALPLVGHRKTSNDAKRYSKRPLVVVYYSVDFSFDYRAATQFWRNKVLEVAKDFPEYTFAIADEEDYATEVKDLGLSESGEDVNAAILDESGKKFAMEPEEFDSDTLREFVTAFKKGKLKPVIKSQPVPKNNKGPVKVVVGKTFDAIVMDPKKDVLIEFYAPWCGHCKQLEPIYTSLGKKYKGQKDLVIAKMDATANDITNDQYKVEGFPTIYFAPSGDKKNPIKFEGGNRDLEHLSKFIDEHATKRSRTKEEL
Assay: insulin reduction turbidity assay, […] nm
Assay type: biochemical
Conditions: insulin substrate; 25 °C; 30 min

Substance: PS1
- IC50: 4 µM
